Laboratory results as given in US9169254B2, “Spiroimidazolone derivative” (Chugai Seiyaku Kabushiki Kaisha, priority 2009, dated 2015).

target: T1, human PTH1 receptor (Homo sapiens, UniProt Q03431); assay: In vitro cAMP signal activity in HKRK-B7 cells (LLC-PK1 cells overexpressing the human PTH1 receptor); assay type: cell-based; conditions: HKRK-B7 cells; compound at 1×10^−3 M; cAMP produced as percentage of that produced by hPTH(1-34) at 100 nM
T1 sequence (Q03431 27-593): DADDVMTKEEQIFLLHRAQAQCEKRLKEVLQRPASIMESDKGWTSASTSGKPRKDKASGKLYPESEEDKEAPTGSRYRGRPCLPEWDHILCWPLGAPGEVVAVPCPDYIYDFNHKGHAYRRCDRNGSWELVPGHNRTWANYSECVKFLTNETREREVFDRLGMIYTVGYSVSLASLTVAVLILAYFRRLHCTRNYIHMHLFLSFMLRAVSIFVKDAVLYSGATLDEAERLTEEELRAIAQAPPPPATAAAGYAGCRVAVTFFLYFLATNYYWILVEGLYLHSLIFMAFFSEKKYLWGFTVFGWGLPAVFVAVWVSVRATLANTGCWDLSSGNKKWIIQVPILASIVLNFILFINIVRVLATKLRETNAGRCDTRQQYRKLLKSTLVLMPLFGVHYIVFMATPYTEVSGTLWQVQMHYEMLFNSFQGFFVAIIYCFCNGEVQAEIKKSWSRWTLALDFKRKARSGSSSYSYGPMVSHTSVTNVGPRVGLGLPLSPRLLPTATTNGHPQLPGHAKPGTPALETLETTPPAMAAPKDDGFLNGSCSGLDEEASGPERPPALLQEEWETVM

Row | Compound | cAMP production activity (%)
1 | Cc1cc(N2C(=O)CN(C)C2=O)cc(C)c1/C=C/S(=O)(=O)N1CCC2(CC1)N=C(C1CCC(CCC(F)(F)F)CC1)NC2=O (stereo not drawn) [Compound 548, 3-[3,5-dimethyl-4-((E)-2-{4-oxo-2-[4-(3,3,3-trifluoro-propyl)-cyclohexyl]-1,3,8-triaza-spiro[4.5]dec-1-ene-8-sulfonyl}-vinyl)-phenyl]-1-methyl-imidazolidine-2,4-dione] | 88%
2 | O=C1NC(C2CCC(CCC(F)(F)F)CC2)=NC12CCN(S(=O)(=O)CCc1cccc3c1ccn3CCOC[C@@H](O)CO)CC2 (stereo partly drawn) [Compound 822, 8-(2-{1-[2-((S)-2,3-dihydroxy-propoxy)-ethyl]-1H-indol-4-yl}-ethanesulfonyl)-2-[4-(3,3,3-trifluoro-propyl)-cyclohexyl]-1,3,8-triaza-spiro[4.5]dec-1-en-4-one] | 99%
3 | CC(=O)N(C)c1cc(C)c(/C=C/S(=O)(=O)N2CCC3(CC2)N=C(C2CCC(CCC(F)(F)F)CC2)NC3=O)c(C)c1 (stereo not drawn) [Compound 546, N-[3,5-dimethyl-4-((E)-2-{4-oxo-2-[4-(3,3,3-trifluoro-propyl)-cyclohexyl]-1,3,8-triaza-spiro[4.5]dec-1-ene-8-sulfonyl}-vinyl)-phenyl]-N-methyl-acetamide] | 75%
4 | Cc1cc(S(=O)(=O)NC[C@@H](O)CO)ccc1/C=C/S(=O)(=O)N1CCC2(CC1)N=C(c1cccc(OC(F)(F)F)c1)NC2=O [Compound 599, N—((R)-2,3-dihydroxy-propyl)-3-methyl-4-{(E)-2-[4-oxo-2-(3-trifluoromethoxy-phenyl)-1,3,8-triaza-spiro[4.5]dec-1-ene-8-sulfonyl]-vinyl}-benzenesulfonamide] | 59%
5 | O=C1NC(C2CCCCC2)=NC12CCN(S(=O)(=O)c1ccc3c(c1)OCCO3)CC2 [Compound 60, 2-cyclohexyl-8-(2,3-dihydro-benzo[1,4]dioxine-6-sulfonyl)-1,3,8-triaza-spiro[4.5]dec-1-en-4-one] | 34%
6 | Cc1cc(C(=O)N2CCC(O)(CF)CC2)cc(C)c1/C=C/S(=O)(=O)N1CCC2(CC1)N=C(c1ccc(F)c(C(F)(F)F)c1)NC2=O [Compound 641, 8-{(E)-2-[4-(4-fluoromethyl-4-hydroxy-piperidine-1-carbonyl)-2,6-dimethyl-phenyl]-ethenesulfonyl}-2-(4-fluoro-3-trifluoromethyl-phenyl)-1,3,8-triaza-spiro[4.5]dec-1-en-4-one] | 85%
7 | Cc1cc(N2C(=O)C(C)(C)C[C@@H]2CO)cc(C)c1/C=C/S(=O)(=O)N1CCC2(CC1)N=C(c1cccc(OC(F)(F)F)c1)NC2=O [Compound 712, 8-{(E)-2-[4-((R)-5-hydroxymethyl-3,3-dimethyl-2-oxo-pyrrolidin-1-yl)-2,6-dimethyl-phenyl]-ethenesulfonyl}-2-(3-trifluoromethoxy-phenyl)-1,3,8-triaza-spiro[4.5]dec-1-en-4-one] | 16%
8 | Cc1cc(C(=O)N2C[C@H](NC(C)C)[C@@H](O)C2)cc(C)c1/C=C/S(=O)(=O)N1CCC2(CC1)N=C(c1cccc(OC(F)(F)F)c1)NC2=O [Compound 406, 8-{(E)-2-[4-((3S,4S)-3-hydroxy-4-isopropylamino-pyrrolidine-1-carbonyl)-2,6-dimethyl-phenyl]-ethenesulfonyl}-2-(3-trifluoromethoxy-phenyl)-1,3,8-triaza-spiro[4.5]dec-1-en-4-one] | 100%
9 | Cc1cc(C(=O)N(C)C)ccc1CCS(=O)(=O)N1CCC2(CC1)N=C(COc1ccc(Cl)cc1Cl)NC2=O [Compound 131, 4-{2-[2-(2,4-dichloro-phenoxymethyl)-4-oxo-1,3,8-triaza-spiro[4.5]dec-1-ene-8-sulfonyl]-ethyl}-3,N,N-trimethyl-benzamide] | 72%

Now from value to molecule:

Row | cAMP production activity (%) | Compound
10 | 77% | Cc1cc(C(=O)N(C)C)ccc1CCS(=O)(=O)N1CCC2(CC1)N=C(N(C)Cc1ccccc1)NC2=O [Compound 1398, 4-{2-[2-(benzyl-methyl-amino)-4-oxo-1,3,8-triaza-spiro[4.5]dec-1-ene-8-sulfonyl]-ethyl}-3,N,N-trimethyl-benzamide]
11 | 12% | Cc1cc(C(=O)N(C)C)ccc1CCS(=O)(=O)N1CCC2(CC1)N=C(c1cccc(OC(F)(F)F)c1)N=C2N(C)C [Compound 899, 4-{2-[4-dimethylamino-2-(3-trifluoromethoxy-phenyl)-1,3,8-triaza-spiro[4.5]deca-1,3-diene-8-sulfonyl]-ethyl}-3,N,N-trimethyl-benzamide]
12 | 85% | CCCCCCCCCC1=NC2(CCN(S(=O)(=O)CCc3c(C)cc(C(=O)N4CCCC4)cc3C)CC2)C(=O)N1 [Compound 980, 8-{2-[2,6-Dimethyl-4-(pyrrolidine-1-carbonyl)-phenyl]-ethanesulfonyl}-2-nonyl-1,3,8-triaza-spiro[4.5]dec-1-en-4-one]
13 | 65% | CCCC[C@]1(F)CC[C@@H](C2=NC3(CCN(S(=O)(=O)CCc4ccc(NC(C)=O)cc4C)CC3)C(=O)N2)CC1 [Compound 1062, N-(4-{2-[2-(4-butyl-4-fluoro-cyclohexyl)-4-oxo-1,3,8-triaza-spiro[4.5]dec-1-ene-8-sulfonyl]-ethyl}-3-methyl-phenyl)-acetamide]
14 | 101% | Cc1cc(N(C)C(N)=O)cc(C)c1CCS(=O)(=O)N1CCC2(CC1)N=C(CCCCCCCCC(F)(F)F)NC2=O [Compound 1046, 1-(3,5-dimethyl-4-{2-[4-oxo-2-(9,9,9-trifluoro-nonyl)-1,3,8-triaza-spiro[4.5]dec-1-ene-8-sulfonyl]-ethyl}-phenyl)-1-methyl-urea]
15 | 64% | CNc1cc(C)c(CCS(=O)(=O)N2CCC3(CC2)N=C(C(C)(F)F)NC3=O)c(C)c1.Cl [Compound 1287, 2-(1,1-difluoro-ethyl)-8-[2-(2,6-dimethyl-4-methylamino-phenyl)-ethanesulfonyl]-1,3,8-triaza-spiro[4.5]dec-1-en-4-one hydrochloride]
16 | 100% | Cc1cc(C(=O)N2CCC(C)(O)CC2)cc(C)c1/C=C/[S@TB4](=O)(=O)N1CCC2(CC1)N=C(c1ccc(Cl)c(OC(F)(F)F)c1)NC2=O [Compound 1093, 2-(4-chloro-3-trifluoromethoxy-phenyl)-8-{(E)-2-[4-(4-hydroxy-4-methyl-piperidine-1-carbonyl)-2,6-dimethyl-phenyl]-ethenesulfonyl}-1,3,8-triaza-spiro[4.5]dec-1-en-4-one]
17 | 68% | Cc1cc(CC(=O)N(C)C)ccc1CCS(=O)(=O)N1CCC2(CC1)N=C(C1CCC(C)CC1)NC2=O (stereo not drawn) [Compound 1387, N,N-dimethyl-2-(3-methyl-4-{2-[2-(4-methyl-cyclohexyl)-4-oxo-1,3,8-triaza-spiro[4.5]dec-1-ene-8-sulfonyl]-ethyl}-phenyl)-acetamide]
18 | 106% | CCCCCCCCCC1=NC2(CCN(S(=O)(=O)CCc3c(C)cc(C(=O)N4CC[C@@H](O)C4)cc3C)CC2)C(=O)N1 [Compound 981, 8-{2-[4-((R)-3-hydroxy-pyrrolidine-1-carbonyl)-2,6-dimethyl-phenyl]-ethanesulfonyl}-2-nonyl-1,3,8-triaza-spiro[4.5]dec-1-en-4-one]
